From publication PMC10668980, “Molecular Cloning, Heterologous Expression, Purification, and Evaluation of Protein–Ligand Interactions of CYP51 of Candida krusei Azole-Resistant Fungal Strain” (Biomedicines, 2023)
Read-outs that look alike come from different tables or passages of the source.

Assays:
[1] = molecular target: T1, C. krusei CYP51 (C.krCYP51) (Pichia kudriavzevii, UniProt A9YUC7, K136R); details: for ΔAmax: absorbance change at ligand saturation; for Type of Spectral Response: difference spectrum 350–500 nm
Protocol: (§1) Dissociation constants of complexes of CYP51 with the substrate, inhibitors, and potential ligands were determined by the spectrophotometric titration method in [37]. Briefly, a protein solution (final concentration of 1 μM) in buffer (50 mM potassium phosphate buffer, pH 7.4) was placed in two cuvettes (1 × 1 cm), and a baseline was recorded on a spectrophotometer at a wavelength of 350–500 nm. The spectra were detected with a Cary 5000 UV-VIS-NIR spectrophotometer. A ligand solution was added to the experimental cuvette and an equal volume of solvent was added to the control cuvette; the change in optical absorption was recorded in the same wavelength range. The solutions in the cuvettes were thoroughly mixed by pipetting after adding the ligand solution or solvent and incubated for 1–2 min. The maximum and minimum absorption values were registered.
(§2) The dissociation constant of the enzyme–ligand complex (Kd) was used as a parameter characterizing the strength of ligand binding in the active site.

[2] = molecular target: T1, C. krusei CYP51 (C.krCYP51); assay: biochemical
Protocol: as §1, §2

T1 sequence (A9YUC7 2-528 K136R): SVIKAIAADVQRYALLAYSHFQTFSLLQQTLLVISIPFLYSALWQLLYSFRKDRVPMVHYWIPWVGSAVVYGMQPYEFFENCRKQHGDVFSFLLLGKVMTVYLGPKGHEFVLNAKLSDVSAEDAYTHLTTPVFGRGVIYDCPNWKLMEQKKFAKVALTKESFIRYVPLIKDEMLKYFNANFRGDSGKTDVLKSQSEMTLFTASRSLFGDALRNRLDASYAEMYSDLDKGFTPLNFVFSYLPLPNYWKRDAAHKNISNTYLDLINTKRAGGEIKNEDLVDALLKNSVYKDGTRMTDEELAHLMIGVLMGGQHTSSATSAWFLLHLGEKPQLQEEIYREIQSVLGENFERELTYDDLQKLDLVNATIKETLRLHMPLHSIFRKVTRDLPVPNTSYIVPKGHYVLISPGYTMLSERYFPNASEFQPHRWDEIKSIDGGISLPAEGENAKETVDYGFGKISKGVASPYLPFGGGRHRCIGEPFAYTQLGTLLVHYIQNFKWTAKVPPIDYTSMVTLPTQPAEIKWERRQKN

Compound	ΔAmax ([1]; azoles)	Type of Spectral Response ([1]; azoles)	Kd [2] [nM]	ΔAmax ([1]; steroid derivatives)	Type of Spectral Response ([1]; steroid derivatives)
c1ccc(-c2ccc(C(c3ccccc3)n3ccnc3)cc2)cc1 (stereo not drawn) [Bifonazole]	0.050	type II	3	–	–
CC(=O)O[C@@]12C=C[C@]3(C[C@H]1[N+](=O)[O-])C1CCc4cc(O)ccc4C1CC[C@@]32C (stereo partly drawn) [73c, 14,17-etheno-3-hydroxy-16α-nitroestra-1,3,5(10)-trien-17β-yl acetate]	–	–	10700	0.0069	type I
CC(C)C(C=C[C@](C)(O)[C@H]1CC[C@H]2[C@@H]3CC=C4C[C@@H](O)CC[C@]4(C)[C@H]3CC[C@@]21C)=NO [compound 99, 3β,20-dihydroxy-24-hydroxyiminocholest-5,22-diene]	–	–	1020	0.0047	type I
CC(C)=CCC[C@@H](C)[C@H]1CC[C@@]2(C)C3=C(CC[C@]12C)[C@@]1(C)CC[C@H](O)C(C)(C)[C@@H]1CC3 [Lanosterol]	–	–	2820	0.031	type I
COC1C(OC2CCC3(C)C(C(O)CC4(O)C3CCC3(C)C(C(C)CCC(OC5OC(CO)C(O)C5O)C(C)C)CC(O)C34)C2O)OCC(O)C1O (stereo not drawn) [Ch-4, granulatoside A]	–	–	6950	0.0099	type I
C[C@@H](c1ncncc1F)[C@](O)(Cn1cncn1)c1ccc(F)cc1F [Voriconazole]	0.023	type II	10	–	–
